# Target: Factor IXa (Homo sapiens, UniProt P00740)
# Assay: Determination of inhibitory activity against Factor IXa (cleavage of fluorescent peptide CH3SO2-D-CHG-Gly-Arg-AFC)
# Format: biochemical
# Conditions: Factor IXa Inhibition table; low enzyme format; read-out: FIXa Low Enzyme
# Description: Determination of Inhibitory Activity Against Factor IXa
# Formation of a clot to stem bleeding at a site of blood vessel injury involves the coordinated activity of a group of plasma proteins that initiate and propagate fibrin formation and subsequently protect fibrin from premature degradation. Factor IX is a key component of the plasma system that forms a fibrin clot at a site of vascular injury. The activity of Factor IXa is measured by monitoring the cleavage of the fluorescent peptide, CH3SO2-D-CHG-Gly-Arg-AFC.AcOH (“CHG” is cyclohexyl-glycine and “AFC” is trifluoro aminomethyl coumarin). Factor IXa cleaves the amide bond between Arg and AFC, thereby releasing the AFC fluorophore. The free AFC can be detected with a fluorescence detector at an excitation wavelength of 405 nm and emission wavelength of 510 nm.
# Factor IXa, sequence (P00740 227-461 limits assumed): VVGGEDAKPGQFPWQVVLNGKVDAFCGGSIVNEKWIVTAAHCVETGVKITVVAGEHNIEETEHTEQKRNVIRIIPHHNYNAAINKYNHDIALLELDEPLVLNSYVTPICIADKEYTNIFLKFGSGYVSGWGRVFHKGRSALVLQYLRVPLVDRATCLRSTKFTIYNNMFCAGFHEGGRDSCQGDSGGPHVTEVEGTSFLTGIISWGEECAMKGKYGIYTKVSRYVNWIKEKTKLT
# Factor IXa, sequence (P00740 47-191 partner limits assumed): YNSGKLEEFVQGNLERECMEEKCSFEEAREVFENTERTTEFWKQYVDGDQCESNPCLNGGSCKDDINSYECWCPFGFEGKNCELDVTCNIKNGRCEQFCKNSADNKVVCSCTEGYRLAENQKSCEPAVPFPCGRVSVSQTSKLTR
row,SMILES,IC50 [nM]
1,"Nc1nsc2c1ccc1[nH]c([C@H](O)[C@H]3OCCN(c4cccc(C5CC5)n4)C3=O)nc(=O)c12 [Example 20, (R)-2-((S)-(3-Amino-9-oxo-6,9-dihydroisothiazolo[5,4-f]quinazolin-7-yl)(hydroxy)methyl)-4-(6-cyclopropylpyridin-2-yl)morpholin-3-one]",88.6
2,"CC(C)(O)c1nc(N2CCO[C@H]([C@@H](O)c3nc(=O)c4c(ccc5c(N)nsc54)[nH]3)C2=O)ccc1C(F)(F)F [Example 22, (R)-2-((S)-(3-Amino-9-oxo-6,9-dihydroisothiazolo[5,4-f]quinazolin-7-yl)(hydroxy)methyl)-4-(6-(2-hydroxypropan-2-yl)-5-(trifluoromethyl)pyridin-2-yl)morpholin-3-one]",25.6
3,"CC(=O)OC1(c2cccc(N3CCO[C@H]([C@@H](O)c4nc(=O)c5c(ccc6c(N)nsc65)[nH]4)C3=O)n2)CCC1 [Example 23, 1-(6-((R)-2-((S)-(3-Amino-9-oxo-6,9-dihydroisothiazolo[5,4-f]quinazolin-7-yl)(hydroxy)methyl)-3-oxomorpholino)pyridin-2-yl)cyclobutyl acetate]",31.5
4,"Nc1nsc2c1ccc1[nH]c([C@H](O)[C@H]3OCCN(c4cccc(C5(O)CCC5)n4)C3=O)nc(=O)c12 [Example 24, (R)-2-((S)-(3-Amino-9-oxo-6,9-dihydroisothiazolo[5,4-f]quinazolin-7-yl)(hydroxy)methyl)-4-(6-(1-hydroxycyclobutyl)pyridin-2-yl)morpholin-3-one]",24.8
5,"CC(O)(c1cccc(N2CCO[C@H]([C@@H](O)c3nc(=O)c4c(ccc5c(N)nsc54)[nH]3)C2=O)n1)C(F)(F)F (stereo partly drawn) [Example 26, (2R)-2-((S)-(3-Amino-9-oxo-6,9-dihydroisothiazolo[5,4-f]quinazolin-7-yl)(hydroxy)methyl)-4-(6-(1,1,1-trifluoro-2-hydroxypropan-2-yl)pyridin-2-yl)morpholin-3-one]",19.3

# Further lines, results first:
row,IC50 [nM],SMILES
1,12.3,"CC(C)(O)c1cccc(N2CCO[C@H]([C@@H](O)c3nc(=O)c4c(ccc5c(N)nsc54)[nH]3)C2=O)n1 [Example 21, (R)-2-((S)-(3-Amino-9-oxo-6,9-dihydroisothiazolo[5,4-f]quinazolin-7-yl)(hydroxy)methyl)-4-(6-(2-hydroxypropan-2-yl)pyridin-2-yl)morpholin-3-one]"
2,11.8,"Nc1nsc2c1ccc1[nH]c([C@H](O)[C@H]3OCCN(c4cccc(C(O)C(F)(F)F)n4)C3=O)nc(=O)c12 (stereo partly drawn) [Example 25, (2R)-2-((S)-(3-Amino-9-oxo-6,9-dihydroisothiazolo[5,4-f]quinazolin-7-yl)(hydroxy)methyl)-4-(6-(2,2,2-trifluoro-1-hydroxyethyl)pyridin-2-yl)morpholin-3-one]"

# Same assay, conditions: table of additional examples; low enzyme format; read-out: FIXa Low Enzyme
row,IC50 [nM],SMILES
1,27.6,"Nc1nccc2cc3[nH]c([C@H](O)[C@H]4OCCN(c5ccn(-c6ccncc6)n5)C4=O)nc(=O)c3cc12 [Example 28, (R)-2-((S)-(6-Amino-4-oxo-1,4-dihydropyrido[3,4-g]quinazolin-2-yl)(hydroxy)methyl)-4-(1-(pyridin-4-yl)-1H-pyrazol-3-yl)morpholin-3-one]"

# Source: patent publication US9695198B2, “Factor IXa inhibitors” (MERCK SHARP & DOHME CORP., priority 2012, dated 2017)
